Data on seven molecules can be found in patent publication US20070287699A1, “ANTIVIRAL AGENTS” (ViroBay, Inc., priority 2006, published 2007).

For orientation: IC50 means the concentration that gives 50% inhibition.

Structures are written as SMILES. Some results are limits rather than exact numbers.

For the experiment, the system named is HCV replicon RNA replication in human Huh7 hepatoma cells. The experiment can be described thus: HCV replicon assay (activity levels from either or both of HCV replicon assay 1, Huh7/Clone A RT-qPCR, and assay 2, Huh7 ET luc-ubi-neo/ET). Format: cell-based, Hepatitis C virus (HCV). Conditions: Hepatitis C virus, Huh-7, either or both HCV replicon assays: Huh7/Clone A, 48 hours, 72 hours, Luc activity or RT-PCR, read-out: inhibit HCV replication at IC50 levels or estimated IC50 levels. The procedure, abridged:
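Huh7/Clone A subgenomic replicon cells treated 48 h at 37° C. with 7 serial dilutions in triplicate (0.5% DMSO final). Replicon RNA measured by TaqMan RT-qPCR on the neo gene, normalized to RiboGreen total RNA; untreated cells set as 100% for IC50.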
Turning to `CC(=O)NCCCCC(c1ccccc1)c1nc(-c2cn(Cc3ccc(Cl)cc3)c3cc(N4CCN(C)CC4)c(F)cc3c2=O)no1` (stereo not shown) [Compound 85, N-(5-{3-[1-(4-chloro-benzyl)-6-fluoro-7-(4-methyl-piperazin-1-yl)-4-oxo-1,4-dihydro-quinolin-3-yl]-[1,2,4]oxadiazol-5-yl}-5-phenyl-pentyl)-acetamide], the IC50 is less than 2000 nM. For the molecule `COc1cc2c(=O)c(-c3noc(CC4CCCCC4)n3)cn(Cc3ccc(Cl)cc3)c2cc1OC` [Compound 5, 1-(4-chloro-benzyl)-3-(5-cyclohexylmethyl-[1,2,4]oxadiazol-3-yl)-6,7-dimethoxy-1H-quinolin-4-one], the IC50 was more than 10000 nM. To `COc1cc2c(=O)c(-c3noc(CC4CCCC4)n3)cn(Cc3ccc(Cl)cc3)c2cc1OC` [Compound 7, 1-(4-chloro-benzyl)-3-(5-cyclopentylmethyl-[1,2,4]oxadiazol-3-yl)-6,7-dimethoxy-1H-quinolin-4-one] belongs more than 10000 nM; to `CN1CCN(c2cc3c(cc2F)c(=O)c(-c2noc(C(CCCC(N)=O)c4ccccc4)n2)cn3Cc2ccc(C(F)(F)F)cc2F)CC1` (stereo not shown) [Compound 89, 5-{3-[6-fluoro-1-(2-fluoro-4-trifluoromethyl-benzyl)-7-(4-methyl-piperazin-1-yl)-4-oxo-1,4-dihydro-quinolin-3-yl]-[1,2,4]oxadiazol-5-yl}-5-phenyl-pentanamide], less than 500 nM; to `CC(C)(c1ccc(F)cc1)c1nc(-c2cn(Cc3ccc(C(F)(F)F)cc3)c3cc(N4CCSCC4)c(F)cc3c2=O)no1` [Compound 132, 6-fluoro-3-(5-(2-(4-fluorophenyl)propan-2-yl)-1,2,4-oxadiazol-3-yl)-7-thiomorpholino-1-(4-(trifluoromethyl)benzyl)quinolin-4(1H)-one], less than 500 nM. To `O=c1c(-c2noc(Cc3ccc(F)cc3)n2)cn(Cc2ccc(Cl)cc2)c2cc(N3CCN(c4ccccn4)CC3)c(F)cc12` [Compound 50, 1-(4-chlorobenzyl)-6-fluoro-3-(5-(4-fluorobenzyl)-1,2,4-oxadiazol-3-yl)-7-(4-(pyridin-2-yl)piperazin-1-yl)quinolin-4(1H)-one] belongs more than 10000 nM. To `CN1CCN(c2cc3c(cc2F)c(=O)c(-c2noc(Cc4ccccc4)n2)cn3Cc2ccc(Cl)cc2)CC1` [Compound 8, 3-(5-benzyl-[1,2,4]oxadiazol-3-yl)-1-(4-chloro-benzyl)-6-fluoro-7-(4-methyl-piperazin-1-yl)-1H-quinolin-4-one] belongs less than 2000 nM.
